Source: patent publication US20150245611A1, “ACTIVE INGREDIENT FOR CONTROLLING TRUE SPIDER MITES” (BAYER CROPSCIENCE AG, priority 2014, published 2015)

What was measured:
Format in all cases: in vivo
Tetranychus urticae [1] = assay: Tetranychus urticae test; outdoor spray treatment (TETRUR) on aubergine plants; details: S. melongena
Protocol: (§1) To produce an appropriate active ingredient formulation, 1 part by weight of active ingredient is mixed with the stated amounts of water to the desired concentration. Added to the spray liquor is 0.1% a.i. Crovol.
Three aubergine plants (Solanum melongena) infested by all stages of the red spider mite (Tetranychus urticae) are sprayed with an active ingredient formulation of each desired concentration. One spray application is conducted in each case.
(§2) After the desired time, the remaining mites per leaf are counted and calculated as the efficacy by the Abbott formula: […]

Tetranychus urticae [2] = assay: Tetranychus urticae test; outdoor spray treatment (TETRUR) on cotton plants; details: G. hirsutum
Protocol: as §1
Three cotton plants (Gossypium hirsutum) infested by all stages of the red spider mite (Tetranychus urticae) are sprayed with an active ingredient formulation of each desired concentration. One spray application is conducted in each case.
After the desired time, the remaining mites per leaf are counted and calculated as the efficacy by the Abbott formula:
[formula] • B=treated plots • K=untreated control plots

[3] = test system: Polyphagotarsonemus latus; assay: Polyphagotarsonemus latus test; outdoor spray treatment (HEMTLA) on aubergine plants; details: S. melongena, 100 g of ai/ha, Dat 16
Protocol: as §1
Three aubergine plants (Solanum melongena) infested by all stages of the broad mite (Polyphagotarsonemus latus) are sprayed with an active ingredient formulation of each desired concentration. A spray application with a water application rate of 500 l/Ha is conducted in each case.
as §2

[4] = test system: Polyphagotarsonemus latus; assay: Polyphagotarsonemus latus test; outdoor spray treatment (HEMTLA) on chilli plants; details: C. frutescens
Protocol: as §1
Three chilli plants (Capsicum frutescens) infested by all stages of the broad mite (Polyphagotarsonemus latus) are sprayed with an active ingredient formulation of each desired concentration. A spray application with a water application rate of 458 l/Ha is conducted in each case.
as §2

[5] = test system: Polyphagotarsonemus latus; assay: Polyphagotarsonemus latus test; outdoor spray treatment (HEMTLA) on bean plants; details: Ph. vulgaris, three sprays at 7-day intervals
Protocol: as §1
Three bean plants (Phaseolus vulgaris) infested by all stages of the broad mite (Polyphagotarsonemus latus) are sprayed with an active ingredient formulation of each desired concentration. Each plant is treated three times at 7-day intervals with a spray application with a water application rate of 200 l/Ha. The juncture of treatment of the plants with the first spray application X corresponds to the start point of the evaluation (Dat=0) (Dat=days after treatment). The further treatments were effected after 7 days (spray application Y), the third treatment after 14 days (spray application Z).
as §2

[6] = test system: Polyphagotarsonemus latus; assay: Polyphagotarsonemus latus test; outdoor spray treatment (HEMTLA) on bell pepper plants; details: Capsicum annuum, 100 g of ai/ha
Protocol: as §1
Three bell pepper plants (Capsicum annuum) infested by all stages of the broad mite (Polyphagotarsonemus latus) are sprayed with an active ingredient formulation of each desired concentration. A spray application with a water application rate of 500 l/Ha is conducted in each case.
as §2

[7] = 100 g of ai/ha (+Crovol 0.1%), Dat 7
[8] = 100 g of ai/ha (+Crovol 0.1%), Dat 14
[9] = 100 g of ai/ha (+Crovol 0.1%), Dat 21
[10] = 75 g of ai/ha (+Crovol 0.1%), Dat 7

## Cn1nc(C(F)(F)C(F)(F)F)c(C(F)(F)F)c1C(=O)Nc1ccc(Cl)c(C(=O)NCc2ccccc2)c1 [Compound (I)]
Tetranychus urticae [1]; 100 g of ai/ha (+Crovol 0.1%), Dat 5
  Efficacy (% Abbott): 99 % Abbott
Tetranychus urticae [1]; [7]
  Efficacy (% Abbott): 100 % Abbott
Tetranychus urticae [1]; [8]
  Efficacy (% Abbott): 100 % Abbott
Tetranychus urticae [1]; [9]
  Efficacy (% Abbott): 99 % Abbott
Tetranychus urticae [1]; 100 g of ai/ha (+Crovol 0.1%), Dat 29
  Efficacy (% Abbott): 99 % Abbott
Tetranychus urticae [2]; 100 g of ai/ha (+Crovol 0.1%), Dat 4
  Efficacy (% Abbott): 100 % Abbott
Tetranychus urticae [2]; 100 g of ai/ha (+Crovol 0.1%), Dat 6
  Efficacy (% Abbott): 100 % Abbott
[3]
  Efficacy (% Abbott): 100 % Abbott
[4]; [10]
  Efficacy (% Abbott): 63 % Abbott
[4]; 75 g of ai/ha (+Crovol 0.1%), Dat 14
  Efficacy (% Abbott): 67 % Abbott
[4]; 75 g of ai/ha (+Crovol 0.1%), Dat 21
  Efficacy (% Abbott): 50 % Abbott
[4]; [7]
  Efficacy (% Abbott): 75 % Abbott
[4]; [8]
  Efficacy (% Abbott): 75 % Abbott
[4]; [9]
  Efficacy (% Abbott): 83 % Abbott
[5]; 75 g of ai/ha (+Crovol 0.1%), Dat 3
  Efficacy (% Abbott): 72 % Abbott
[5]; [10]
  Efficacy (% Abbott): 80.7 % Abbott
[5]; 75 g of ai/ha (+Crovol 0.1%), Dat 14 (Y)
  Efficacy (% Abbott): 81.2 % Abbott
[5]; 75 g of ai/ha (+Crovol 0.1%), Dat 21 (Z)
  Efficacy (% Abbott): 79.2 % Abbott
[5]; 75 g of ai/ha (+Crovol 0.1%), Dat 28
  Efficacy (% Abbott): 49.7 % Abbott
[5]; 100 g of ai/ha (+Crovol 0.1%), Dat 3
  Efficacy (% Abbott): 81.4 % Abbott
[5]; 100 g of ai/ha (+Crovol 0.1%), Dat 7 (Y)
  Efficacy (% Abbott): 91.5 % Abbott
[5]; 100 g of ai/ha (+Crovol 0.1%), Dat 14 (Z)
  Efficacy (% Abbott): 90 % Abbott
[5]; [9]
  Efficacy (% Abbott): 91.9 % Abbott
[5]; 100 g of ai/ha (+Crovol 0.1%), Dat 28
  Efficacy (% Abbott): 52.7 % Abbott
[6]; Dat 3
  Efficacy (% Abbott): 100 % Abbott
[6]; Dat 7
  Efficacy (% Abbott): 99.8 % Abbott
[6]; Dat 15
  Efficacy (% Abbott): 95.9 % Abbott
[6]; Dat 21
  Efficacy (% Abbott): 85.5 % Abbott

## Cc1nn(C)c(/C(OC(=O)C(C)(C)C)=C(\C#N)c2ccc(C(C)(C)C)cc2)c1C [Cyenopyrafen, reference compound]
Tetranychus urticae [2]; 150 g of ai/ha, Dat 4
  Efficacy (% Abbott): 98 % Abbott
Tetranychus urticae [2]; 150 g of ai/ha, Dat 6
  Efficacy (% Abbott): 99 % Abbott
[4]; 150 g of ai/ha, Dat 7
  Efficacy (% Abbott): 28 % Abbott
[4]; 150 g of ai/ha, Dat 14
  Efficacy (% Abbott): 45 % Abbott
[4]; 150 g of ai/ha, Dat 21
  Efficacy (% Abbott): 0 % Abbott
[5]; 150 g of ai/ha, Dat 3
  Efficacy (% Abbott): 83.7 % Abbott
[5]; 150 g of ai/ha, Dat 7 (Y)
  Efficacy (% Abbott): 63.8 % Abbott
[5]; 150 g of ai/ha, Dat 14 (Z)
  Efficacy (% Abbott): 48.5 % Abbott
[5]; 150 g of ai/ha, Dat 21
  Efficacy (% Abbott): 58.1 % Abbott
[5]; 150 g of ai/ha, Dat 28
  Efficacy (% Abbott): 0 % Abbott

## CC(C)(C)c1ccc(CCOc2ncnc3ccccc23)cc1 [Fenazaquin, reference compound]
[3]
  Efficacy (% Abbott): 97.9 % Abbott
[6]; Dat 3
  Efficacy (% Abbott): 92.3 % Abbott
[6]; Dat 7
  Efficacy (% Abbott): 96 % Abbott
[6]; Dat 15
  Efficacy (% Abbott): 77.4 % Abbott
[6]; Dat 21
  Efficacy (% Abbott): 33.5 % Abbott

## CCC(C)(C)C(=O)OC1=C(c2ccc(Cl)cc2Cl)C(=O)OC12CCCCC2 [Spirodiclofen, reference compound]
Tetranychus urticae [1]; 48 g of ai/ha, Dat 5
  Efficacy (% Abbott): 63 % Abbott
Tetranychus urticae [1]; 48 g of ai/ha, Dat 7
  Efficacy (% Abbott): 89 % Abbott
Tetranychus urticae [1]; 48 g of ai/ha, Dat 14
  Efficacy (% Abbott): 97.5 % Abbott
Tetranychus urticae [1]; 48 g of ai/ha, Dat 21
  Efficacy (% Abbott): 95 % Abbott
Tetranychus urticae [1]; 48 g of ai/ha, Dat 29
  Efficacy (% Abbott): 80 % Abbott
